According to patent US20110039763A1, “TARGETED ANTIMICROBIAL MOIETIES” (C3 JIAN, INC., priority 2009, published 2011):
“Also recorded” adds a separate entry of the source.

What was measured:
microorganisms [1] = assay: Morphology, biofilm and growth disrupting peptides (Table 5); assay type: cell-based; design: key: A: Peptide aggregates; B: Less hyphal formation; Clumps; Diffuse clumps and small polyps; F: Diffuse growth; H: Thin; I: Growth inhibition; Microcolony formation; Rippled; Small polyps; Thick; W: Halo formation on top, microlonies on bottom
Text: In certain embodiments peptides that induce alterations in phenotype or other biological activities can also be used as antimicrobial effector moieties.

microorganisms [2] = assay: Peptide activities: targeting/binding, antimicrobial, growth or phenotype altering (Tables 7, 8); assay type: cell-based; conditions: peptides having multiple activities
microorganisms [3] = assay: Targeting peptide binding to target microorganisms (Tables 3, 10, 12); conditions: microorganism(s) the targeting peptide binds; binding in aqueous buffers varied with peptide solubility, preferably 1x PBS

PF-129: peptide having multiple activities (chain 1 MKLLARDPWVCAWNDIW; chain 2 MKLLARDPWVCAWNDIW; Peptide with targeting and/or antimicrobial activity)
Organism, effect: C. jeikeium (microorganisms [1]): C. jeikeium (R) | Organism, effect: S. epidermidis (microorganisms [1]): S. epidermidis (M) | Activities (microorganisms [2]): G B | Target(s) (microorganisms [3]): S. epidermidis and MRSA and E. faecalis and C. jeikeium and C. jejuni

PF-133: peptide having multiple activities (chain 1 GDPTAGQKPVECP; chain 2 GDPTAGQKPVECP; Peptide with targeting and/or antimicrobial activity)
Organism, effect: C. jeikeium (microorganisms [1]): C. jeikeium (R) | Activities (microorganisms [2]): G B | Target(s) (microorganisms [3]): S. epidermidis; also recorded: C. jeikeium; also recorded: C. jejuni; also recorded: M. smegmatis

PF-135: peptide having multiple activities (chain 1 PPARPARIPQTPTLHGASLFRQRS; chain 2 PPARPARIPQTPTLHGASLFRQRS; Peptide with targeting and/or antimicrobial activity)
Organism, effect: C. jeikeium (microorganisms [1]): C. jeikeium (R) | Activities (microorganisms [2]): G B | Target(s) (microorganisms [3]): S. epidermidis and M. luteus and E. coli and P. aeruginosa and MRSA and C. jeikeium and M. smegmatis

PF-144: peptide having multiple activities (chain 1 RSGQPVGRPSRRAWLR; chain 2 RSGQPVGRPSRRAWLR; Peptide with targeting and/or antimicrobial activity)
Organism, effect: S. pneumoniae (microorganisms [1]): S. pneumoniae (H) | Activities (microorganisms [2]): G B | Target(s) (microorganisms [3]): S. epidermidis and M. luteus and E. coli and C. albicans and MRSA and S. pneumoniae and E. faecalis and C. jeikeium

PF-149: peptide having multiple activities (chain 1 GKVSVLTRVPRSLGGAPANQ; chain 2 GKVSVLTRVPRSLGGAPANQ; Peptide with targeting and/or antimicrobial activity)
Organism, effect: MRSA (microorganisms [1]): MRSA (H) | Activities (microorganisms [2]): G B | Target(s) (microorganisms [3]): S. epidermidis and M. luteus and E. coli and MRSA and C. jeikeium

PF-153: peptide having multiple activities (chain 1 GILARADCSQIA; chain 2 GILARADCSQIA; Peptide with targeting and/or antimicrobial activity)
Organism, effect: C. jeikeium (microorganisms [1]): C. jeikeium (C) | Organism, effect: S. epidermidis (microorganisms [1]): S. epidermidis (M) | Activities (microorganisms [2]): G B | Target(s) (microorganisms [3]): M. luteus and P. mirabilis and E. coli and MRSA

PF-156: peptide having multiple activities (LITAEQPATAPIAGK; Peptide with targeting and/or antimicrobial activity)
Organism, effect: MRSA (microorganisms [1]): MRSA (H) | Activities (microorganisms [2]): G B | Target(s) (microorganisms [3]): S. epidermidis; also recorded: C. jeikeium

PF-164: peptide having multiple activities (EEVSRALAGIGLGLGCRIG; Peptide with targeting and/or antimicrobial activity)
Organism, effect: C. jeikeium (microorganisms [1]): C. jeikeium (R) | Activities (microorganisms [2]): G B | Target(s) (microorganisms [3]): S. epidermidis; also recorded: M. luteus; also recorded: E. coli; also recorded: C. jeikeium

PF-171: peptide having multiple activities (TQVTLCRTW; Peptide with targeting and/or antimicrobial activity)
Organism, effect: B. subtilis (microorganisms [1]): B. subtilis (D) | Organism, effect: C. jejuni (microorganisms [1]): C. jejuni (R) | Organism, effect: M. luteus (microorganisms [1]): M. luteus (R) | Organism, effect: MRSA (microorganisms [1]): MRSA (M) | Organism, effect: S. epidermidis (microorganisms [1]): S. epidermidis (R) | Organism, effect: S. pneumoniae (microorganisms [1]): S. pneumoniae (D) | Activities (microorganisms [2]): G B | Target(s) (microorganisms [3]): S. epidermidis; also recorded: E. coli; also recorded: P. aeruginosa; also recorded: S. pneumoniae

PF-173: peptide having multiple activities (AGRTAIVQGGG; Peptide with targeting and/or antimicrobial activity)
Organism, effect: C. jeikeium (microorganisms [1]): C. jeikeium (D) | Organism, effect: S. epidermidis (microorganisms [1]): S. epidermidis (A) | Activities (microorganisms [2]): G B | Target(s) (microorganisms [3]): S. epidermidis; also recorded: M. luteus; also recorded: P. mirabilis; also recorded: E. coli; also recorded: P. aeruginosa; also recorded: C. albicans; also recorded: C. jeikeium; also recorded: C. jejuni

PF-175: peptide having multiple activities (RRRPAGQRPEKASQAMIAA; Peptide with targeting and/or antimicrobial activity)
Organism, effect: B. subtilis (microorganisms [1]): B. subtilis (D) | Organism, effect: C. albicans (microorganisms [1]; C. albicans): C. albicans (B) | Organism, effect: C. jejuni (microorganisms [1]): C. jejuni (M) | Organism, effect: M. luteus (microorganisms [1]): M. luteus (S) | Organism, effect: S. pneumoniae (microorganisms [1]): S. pneumoniae (A) | Activities (microorganisms [2]): G B | Target(s) (microorganisms [3]): S. epidermidis; also recorded: E. faecalis

PF-176: peptide having multiple activities (RLTSNQFLTRITPFVFAQH; Peptide with targeting and/or antimicrobial activity)
Organism, effect: C. jeikeium (microorganisms [1]): C. jeikeium (D) | Organism, effect: M. luteus (microorganisms [1]): M. luteus (C) | Organism, effect: S. epidermidis (microorganisms [1]): S. epidermidis (C) | Activities (microorganisms [2]): G B | Target(s) (microorganisms [3]): S. epidermidis and M. luteus and P. mirabilis and E. coli and C. albicans and MRSA and E. faecalis and C. jeikeium

PF-180: peptide having multiple activities (SGLGDLGFSSEAK; Peptide with targeting and/or antimicrobial activity)
Organism, effect: S. epidermidis (microorganisms [1]): S. epidermidis (C) | Activities (microorganisms [2]): G B | Target(s) (microorganisms [3]): S. epidermidis and M. luteus and P. aeruginosa and C. albicans and MRSA and E. faecalis and C. jejuni and M. smegmatis

PF-186: peptide having multiple activities (DADKNLSLERDRFAWRVAAP; Peptide with targeting and/or antimicrobial activity)
Organism, effect: C. jeikeium (microorganisms [1]): C. jeikeium (A) | Organism, effect: S. epidermidis (microorganisms [1]): S. epidermidis (C) | Activities (microorganisms [2]): G B | Target(s) (microorganisms [3]): S. epidermidis and M. luteus and E. coli and P. aeruginosa and MRSA and C. jeikeium

PF-188: peptide having multiple activities (ARTFAGRLGTRYFGGLMRSTKA; Peptide with targeting and/or antimicrobial activity)
Organism, effect: C. jeikeium (microorganisms [1]): C. jeikeium (H) | Activities (microorganisms [2]): G B | Target(s) (microorganisms [3]): S. epidermidis and M. luteus and E. coli and C. albicans and MRSA and E. faecalis

PF-191: peptide having multiple activities (QFCNFAWLFLASNNAQVSALA; Peptide with targeting and/or antimicrobial activity)
Organism, effect: C. jeikeium (microorganisms [1]): C. jeikeium (R) | Organism, effect: MRSA (microorganisms [1]): MRSA (H) | Organism, effect: S. epidermidis (microorganisms [1]): S. epidermidis (A) | Activities (microorganisms [2]): G B | Target(s) (microorganisms [3]): E. coli; also recorded: P. aeruginosa; also recorded: C. jejuni

PF-192: peptide having multiple activities (VEEDEAPPPHY; Peptide with targeting and/or antimicrobial activity)
Organism, effect: S. epidermidis (microorganisms [1]): S. epidermidis (D) | Activities (microorganisms [2]): G B | Target(s) (microorganisms [3]): S. epidermidis; also recorded: M. luteus; also recorded: P. aeruginosa; also recorded: C. albicans; also recorded: E. faecalis; also recorded: C. jeikeium

PF-204: peptide having multiple activities (ALQKQDMNLPSVKNQLVFLKSTG; Peptide with targeting and/or antimicrobial activity)
Organism, effect: C. jeikeium (microorganisms [1]): C. jeikeium (D) | Organism, effect: M. luteus (microorganisms [1]): M. luteus (C) | Organism, effect: P. aeruginosa (microorganisms [1]; P. aeruginosa): P. aeruginosa (H) | Organism, effect: S. epidermidis (microorganisms [1]): S. epidermidis (C) | Activities (microorganisms [2]): G B | Target(s) (microorganisms [3]): S. epidermidis; also recorded: P. mirabilis; also recorded: E. coli; also recorded: P. aeruginosa; also recorded: C. albicans; also recorded: C. jejuni

PF-208: peptide having multiple activities (DAYHCHLVRSPDAHDLSMRIGFV; Peptide with targeting and/or antimicrobial activity)
Organism, effect: C. jeikeium (microorganisms [1]): C. jeikeium (A) | Organism, effect: S. epidermidis (microorganisms [1]): S. epidermidis (D) | Activities (microorganisms [2]): G B | Target(s) (microorganisms [3]): S. epidermidis and C. albicans and MRSA and S. pneumoniae and E. faecalis and C. jeikeium and C. jejuni

PF-212: peptide having multiple activities (NDSKASN; Peptide with targeting and/or antimicrobial activity)
Organism, effect: M. luteus (microorganisms [1]): M. luteus (M) | Activities (microorganisms [2]): G B | Target(s) (microorganisms [3]): M. luteus; also recorded: P. aeruginosa

PF-215: peptide having multiple activities (ELKITNYNVNTVLYRYYKWGNDLCE; Peptide with targeting and/or antimicrobial activity)
Organism, effect: M. luteus (microorganisms [1]): M. luteus (T) | Activities (microorganisms [2]): G B | Target(s) (microorganisms [3]): S. epidermidis; also recorded: M. luteus; also recorded: P. aeruginosa; also recorded: A. baumannii

PF-224: peptide having multiple activities (DYFYITLSQKNTF; Peptide with targeting and/or antimicrobial activity)
Organism, effect: M. luteus (microorganisms [1]): M. luteus (T) | Activities (microorganisms [2]): G B | Target(s) (microorganisms [3]): S. epidermidis; also recorded: P. aeruginosa; also recorded: A. baumannii

PF-233: peptide having multiple activities (DANAMARTTIAIVYILALIALTISYSL; Peptide with targeting and/or antimicrobial activity)
Organism, effect: S. epidermidis (microorganisms [1]): S. epidermidis (C) | Activities (microorganisms [2]): G B | Target(s) (microorganisms [3]): S. epidermidis; also recorded: M. luteus; also recorded: P. aeruginosa; also recorded: A. baumannii
